Experimental data: ChEMBL document CHEMBL1143526, “Benzothiazolium compounds: novel classes of inhibitors that suppress the nitric oxide production in RAW264.7 cells stimulated by LPS/IFNgamma” (Bioorg Med Chem Lett, 2005)

Legend:
RAW264.7 [1] = assay: Inhibition of LPS/IFN gamma stimulated RAW264.7 cells determined by MTS assay; assay type: functional; settings: Mus musculus
RAW264.7 [2] = assay: Suppression of nitric oxide production in the LPS/IFN gamma stimulated RAW264.7 cells; assay type: functional, cell-based; settings: Mus musculus

IC50 (RAW264.7 [2])	SMILES	GI50 (RAW264.7 [1])
11.5 µM	CC[n+]1c(/C=C2\Sc3ccccc3N2CCC(=O)O)sc2ccccc21	> 10 µM
5.78 µM	CCC(/C=C1\Sc2ccccc2N1CCCS(=O)(=O)O)=C\c1sc2ccccc2[n+]1CC	> 10 µM
3.31 µM	CC[n+]1c(/C=C/c2ccc(N(C)C)cc2)sc2cc(NC(C)=O)ccc21	> 10 µM
0.318 µM	CCN1C(=Cc2sc3ccccc3[n+]2C)C=Cc2cccc(C)c21	> 10 µM
0.444 µM	CCN1C(=Cc2sc3ccccc3[n+]2C)C=Cc2ccc(C)cc21	> 10 µM
0.062 µM	CCC(/C=C1\Sc2ccccc2N1CC)=C\c1sc2ccccc2[n+]1CC	5.5 µM
66.1 µM	CC/C(=C\c1sc2ccc(OC)cc2[n+]1CCCS(=O)(=O)[O-])SC	> 10 µM
18.4 µM	CC[n+]1c(/C=C(/C)SC)sc2ccc(OC)cc21	> 10 µM
0.183 µM	CCN1/C(=C/c2sc3ccccc3[n+]2CC)C=Cc2ccc(C)cc21	> 10 µM
2.16 µM	CN(C)c1ccc(/C=C/c2sc3ccc4ccccc4c3[n+]2C)cc1	> 10 µM
0.402 µM	CCC(/C=C1\Sc2ccc(Cl)cc2N1C)=C\c1sc2ccc(Cl)cc2[n+]1C	7.9 µM
0.637 µM	CCN1/C(=C/C(=C/c2sc3ccccc3[n+]2CC)SC)Sc2ccccc21	> 10 µM
0.684 µM	CCN1/C(=C/c2sc3cc(OC)c(OC)cc3[n+]2CC)C=Cc2ccccc21	> 10 µM
24.2 µM	CC[n+]1c(/C=C(/C)SC)sc2ccccc21	> 10 µM
10.7 µM	CC[n+]1c(C=C2Sc3ccccc3N2CCO)sc2ccccc21	> 10 µM
4.8 µM	CN(C)c1ccc(/C=C/c2sc3ccccc3[n+]2C)cc1	> 10 µM
4.94 µM	CC[n+]1c(/C=C/c2ccc(N(C)C)cc2)sc2ccccc21	> 10 µM
20.2 µM	CC(/C=C1\Sc2ccccc2N1CCO)=C\c1sc2ccccc2[n+]1CCO	> 10 µM
0.258 µM	CCN1/C(=C/c2sc3cc(C)c(C)cc3[n+]2CC)C=Cc2ccccc21	5.8 µM
13.3 µM	CCN1/C(=C/c2sc3ccccc3[n+]2CC)C=Cc2cc(NC(C)=O)ccc21	> 10 µM
3.99 µM	CC/C(=C\c1sc2ccc(OC)cc2[n+]1CC)SC	> 10 µM

More lines, now with the values behind:

SMILES	IC50 (RAW264.7 [2])	GI50 (RAW264.7 [1])
CC[n+]1c(/C=C2\C=Cc3ccc(C)cc3N2CCCS(=O)(=O)O)sc2ccccc21	27.2 µM	> 10 µM
CC[n+]1c(/C=C(\C)Nc2ccccc2)sc2ccccc21	44.8 µM	> 10 µM
CC[n+]1c(/C=C(\C)NCc2ccccc2)sc2ccccc21	7.61 µM	> 10 µM
CCN1/C(=C/C(N)=C/c2sc3ccccc3[n+]2CC)Sc2ccccc21	0.847 µM	> 10 µM
CC[n+]1c(/C=C/c2ccc(N(C)C)cc2)sc2cc(C)ccc21	2.27 µM	> 10 µM
CCC(/C=C1\Sc2ccc(Cl)cc2N1CC)=C\c1sc2ccc(Cl)cc2[n+]1CC	0.741 µM	9 µM
CCN1/C(=C/C(C)=C/c2sc3ccccc3[n+]2CC)Sc2ccccc21	0.198 µM	> 10 µM
NC(=C\c1sc2ccccc2[n+]1CCCS(=O)(=O)O)/C=C1\Sc2ccccc2N1CCCS(=O)(=O)O	51.9 µM	> 10 µM
CN1/C(=C/c2sc3ccccc3[n+]2C)Sc2ccccc21	4.69 µM	> 10 µM
CC/C(=C/c1sc2ccc(OC)cc2[n+]1CC)SC	3.64 µM	> 10 µM
CCCC[n+]1c(C=C2C=Cc3ccccc3N2CC)sc2ccccc21	0.215 µM	5.5 µM
CCN1/C(=C/C(=C/c2sc3ccccc3[n+]2CC)OC)Sc2ccccc21	0.461 µM	> 10 µM
CC[n+]1c(/C=C2\C=Cc3ccc(C)cc3N2C)sc2ccccc21	0.253 µM	> 10 µM
CC[n+]1c(/C=C2\C=Cc3cc(C)ccc3N2C)sc2ccccc21	0.178 µM	> 10 µM
CCN1/C(=C/c2sc3ccccc3[n+]2CC)Sc2ccccc21	0.403 µM	> 10 µM
CCC(/C=C1\Sc2ccccc2N1C)=C\c1sc2ccccc2[n+]1C	0.055 µM	5.5 µM
CCN1C(=Cc2sc3ccc(OC)cc3[n+]2CC)C=Cc2ccccc21	1.06 µM	9.3 µM
CCN1/C(=C/c2sc3ccc(Br)cc3[n+]2CC)C=Cc2ccccc21	0.241 µM	> 10 µM
CN1/C(=C/C(=C/c2sc3ccccc3[n+]2C)C2CCC2)Sc2ccccc21	0.662 µM	6.5 µM
COc1ccc2sc(/C=C(\C)SC)[n+](CCCS(=O)(=O)[O-])c2c1	69.5 µM	> 10 µM
CCN1/C(=C/c2sc3ccc(I)cc3[n+]2CC)C=Cc2ccccc21	0.259 µM	> 10 µM
CCN1/C(=C/c2sc3ccccc3[n+]2CC)C=Cc2ccccc21	0.244 µM	> 10 µM
CC[n+]1c(/C=C/c2ccc(N(C)C)cc2)sc2ccc(C(=O)OC)cc21	10.8 µM	> 10 µM
O=S(=O)(O)CCCN1/C(=C/c2sc3ccccc3[n+]2CCCS(=O)(=O)O)C=Cc2ccccc21	64.6 µM	> 10 µM
CCCN1/C(=C/c2sc3ccccc3[n+]2CC)C=Cc2ccccc21	0.288 µM	> 10 µM
CCN1/C(=C/c2sc3ccccc3[n+]2C)C=Cc2ccccc21	0.216 µM	> 10 µM
CC[n+]1c(/C=C/c2ccc(N(C)C)cc2)sc2ccc(C)cc21	2.33 µM	> 10 µM
CCN1/C(=C/c2sc3ccc(C)cc3[n+]2CC)C=Cc2ccccc21	0.295 µM	> 10 µM
